Measurements reported in patent publication US20070027121A1, “Method of treatment of diarrhea-predominant IBS in a female subject receiving contraceptive therapy” (priority 2005, published 2007).

Tests used:
[1] = design: dose or concentration left out as unconfirmed; conditions: co-administration with oral contraceptive containing; cited from earlier work
[2] = test system: follicle stimulating hormone (FSH); test: Mean serum concentration of FSH in crossover study of OC plus cilansetron or placebo; type: in vivo, human; conditions: FIG. 4
Protocol: (§1) A double-blind, balanced, randomized, two-period, placebo-controlled, crossover study in 20 healthy female subjects (1845 years of age, and who had received Ortho Tri-Cyclen® oral contraceptive (“OC”) for three or more months immediately preceding the start of the study) of cilansetron administration was conducted. All subjects were to have their OC cycles synchronized so that on study Day 1, they received the first dose of their OC for that cycle. All subjects were to continue to receive daily administrations of OC through each of the two consecutive 28-day study periods. […] Safety was measured by monitoring adverse events, physical examination, clinical laboratory and pulmonary function tests, vital signs, 12 lead ECG, and telemetry.
(§2) In efforts to determine the effects (if any) of cilansetron 2 mg administration TID for 7 days on the pharmacodynamics of progesterone (P), luteinizing hormone (LH) and follicle stimulating hormone (FSH), the mean serum concentrations of these hormones was determined across the entire time-course of treatment, as set forth in Tables 6-8 and FIGS. 4-6. […]
(§3) Measurable serum concentrations of […], LH and P were available for 17 out of the 20 subjects, as determined using a validated ADVIA Centaur assay. […]

[3] = design: species or system human; conditions: in vivo
Protocol: A double-blind, balanced, randomized, two-period, placebo-controlled, crossover study in 20 healthy female subjects (1845 years of age, and who had received Ortho Tri-Cyclen® oral contraceptive (“OC”) for three or more months immediately preceding the start of the study) of cilansetron administration was conducted. All subjects were to have their OC cycles synchronized so that on study Day 1, they received the first dose of their OC for that cycle. All subjects were to continue to receive daily administrations of OC through each of the two consecutive 28-day study periods. […] In addition, during the first 28 days of the study (“the first period”), half of the subjects were administered 2 mg doses of cilansetron three times daily (TID) for 7 days (i.e., study days 14-21), while the other half of the subjects received equivalent doses of a placebo TID. On the first day of the “second period” of the 56-day study (i.e., day 29), the two groups were crossed over for the administration of the reverse treatment (i.e., those subjects who had been administered cilansetron 2 mg TID in the first period were to receive equivalent placebo administrations, and vice versa) for 7 days (i.e., study days 4249). Thereby, all subjects received both cilansetron and placebo treatments and, therefore, served as their own control. Safety was measured by monitoring adverse events, physical examination, clinical laboratory and pulmonary function tests, vital signs, 12 lead ECG, and telemetry. […]
The mean plasma concentration-time profile for EE was determined for both treatment groups in each of the two study periods, and are set forth in Table 1 (the contents of which are graphically illustrated in FIG. 1). The mean plasma concentration-time profile for NGM was determined for both treatment groups in each of the two study periods, and are set forth in Table 2. The mean plasma concentration-time profile for 17-d-NGM was determined for both treatment groups in each of the two study periods, and are set forth in Table 3 (the contents of which are graphically illustrated in FIG. 2). […]

[4] = test system: luteinizing hormone (LH); test: Mean serum concentration of LH in crossover study of OC plus cilansetron or placebo; type: in vivo, human; conditions: FIG. 5
Protocol: as §1, §2, §3

[5] = test system: progesterone (P); test: Mean serum concentration of progesterone (P) in crossover study of OC plus cilansetron or placebo; type: in vivo, human; conditions: FIG. 6
Protocol: as §1, §2, §3

SMILES	decrease in systemic exposure to the EE component [1]	decrease in systemic exposure to the LN component [1]	mean serum concentration of FSH compared with OC therapy alone [2]	effect on the pharmacokinetic and pharmacodynamic profiles and parameters associated with normal contraceptive use [3]	mean plasma concentration of 17-d-NGM compared with OC therapy alone [3]	mean plasma concentration of EE compared with OC therapy alone [3]	mean serum concentration of LH compared with OC therapy alone [4]	mean serum concentration of endogenous progesterone (P) compared with OC therapy alone [5]
Cc1[nH]cnc1CN1CCc2c(c3ccccc3n2C)C1=O [alosetron]	9%	13%	–	–	–	–	–	–
Cc1nccn1C[C@H]1CCc2c(c3cccc4c3n2CCC4)C1=O [cilansetron, (R)-(−)-4,5,6,8,9,10-hexahydro-10-[(2-methyl-1H-imidazol-1-yl)methyl]-11H-pyrido-[3,2,1-jk]-carbazol-11-one]	–	–	substantially the same	substantially no or no effect	substantially the same	substantially the same	substantially the same	substantially the same
